Measurements as given in patent US12378224B2 (Dong-A Socio Holdings Co., Ltd., priority 2016, dated 2025).

Molecular target: human MER (528-end) (Homo sapiens (Human), UniProt Q12866)
Assay: HTRF Kinase Activity Biochemical Assay (KinEASE-TK)
Conditions: 10 uM ATP
Outline: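 Recombinant human MER (528-end) phosphorylated biotin-TK peptide substrate, 1 h at room temperature. Reaction stopped with detection buffer containing 0.375 nM Eu3+-cryptate anti-TK antibody and 0.062 uM streptavidin-XL665, 1 h further. Activity taken as HTRF ratio 665/620 nm ×10,000, 340 nm excitation.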

Chain of human MER (528-end) (Q12866 528-999 limits assumed): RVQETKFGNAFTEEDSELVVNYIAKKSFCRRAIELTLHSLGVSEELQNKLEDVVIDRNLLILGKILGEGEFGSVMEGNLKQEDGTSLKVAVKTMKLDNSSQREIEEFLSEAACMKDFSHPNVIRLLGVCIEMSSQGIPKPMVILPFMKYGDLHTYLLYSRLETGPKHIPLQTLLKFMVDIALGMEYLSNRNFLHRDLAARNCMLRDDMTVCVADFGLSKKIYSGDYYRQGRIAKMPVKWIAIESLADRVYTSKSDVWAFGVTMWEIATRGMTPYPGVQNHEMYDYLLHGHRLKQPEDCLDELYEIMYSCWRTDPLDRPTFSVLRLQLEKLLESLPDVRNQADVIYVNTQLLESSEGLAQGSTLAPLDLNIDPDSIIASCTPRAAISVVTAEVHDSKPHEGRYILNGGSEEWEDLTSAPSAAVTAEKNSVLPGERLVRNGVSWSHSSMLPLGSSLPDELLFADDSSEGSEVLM

COC(=O)[C@@H]1C[C@H](NC(=O)c2cc(-c3cnn(C)c3)cnc2N)CN1C(=O)c1ccc(-c2ccccc2)cc1 [Example 685, methyl (2S,4S)-1-([1,1′-biphenyl]-4-carbonyl)-4-(2-amino-5-(1-methyl-1H-pyrazol-4-yl)nicotinamido)pyrrolidine-2-carboxylate] and COC(=O)[C@@H]1C[C@H](NC(=O)c2cc(-c3cnn(C)c3)cnc2N)CN1C(=O)c1cccc(-c2ccccc2)c1 [Example 686, methyl (2S,4S)-1-([1,1′-biphenyl]-3-carbonyl)-4-(2-amino-5-(1-methyl-1H-pyrazol-4-yl)nicotinamido)pyrrolidine-2-carboxylate] cannot be ordered by IC50: greater than 1000 nM for the first, greater than 1000 nM for the second.

CCOC(=O)C1CN(C(=O)c2cccc(-c3ccccc3)c2)CC1NC(=O)c1cc(-c2cnn(C)c2)cnc1N (stereo not drawn) [Example 688, ethyl 1-([1,1′-biphenyl]-3-carbonyl)-4-(2-amino-5-(1-methyl-1H-pyrazol-4-yl)nicotinamido)pyrrolidine-3-carboxylate] and Cc1cc(-c2cc(F)ccc2Cl)ccc1C(=O)N1CC[C@@H](NC(=O)c2cc(-c3cnn(C)c3)cnc2N)C1 [Example 691, (R)-2-amino-N-(1-(2′-chloro-5′-fluoro-3-methyl-[1,1′-biphenyl]-4-carbonyl)pyrrolidin-3-yl)-5-(1-methyl-1H-pyrazol-4-yl)nicotinamide] cannot be ordered by IC50: greater than 1000 nM for the first, greater than 1000 nM for the second.

Compared with Cc1cc(C(=O)N2CC[C@@H](NC(=O)c3cc(-c4cnn(C)c4)cnc3N)C2)ccc1-c1cc(F)ccc1Cl [Example 692, (R)-2-amino-N-(1-(2′-chloro-5′-fluoro-2-methyl-[1,1′-biphenyl]-4-carbonyl)pyrrolidin-3-yl)-5-(1-methyl-1H-pyrazol-4-yl)nicotinamide], Cn1cc(-c2cnc(N)c(C(=O)N[C@@H]3CCN(C(=O)c4ccc(-c5cc(F)ccc5Cl)cc4Cl)C3)c2)cn1 [Example 693, (R)-2-amino-N-(1-(2′,3-dichloro-5′-fluoro-[1,1′-biphenyl]-4-carbonyl)pyrrolidin-3-yl)-5-(1-methyl-1H-pyrazol-4-yl)nicotinamide] is higher in IC50: 10 to 100 nM for the first, greater than 1000 nM for the second. The first is the more potent here.

Cn1cc(-c2cnc(N)c(C(=O)N[C@@H]3CCN(C(=O)c4ccc(-c5ccc(F)cc5Cl)cc4Cl)C3)c2)cn1 [Example 694, (R)-2-amino-N-(1-(2′,3-dichloro-4′-fluoro-[1,1′-biphenyl]-4-carbonyl)pyrrolidin-3-yl)-5-(1-methyl-1H-pyrazol-4-yl)nicotinamide] and Cn1cc(-c2cnc(N)c(C(=O)N[C@@H]3CCN(C(=O)[C@H]4C[C@@H]4c4ccccc4)C3)c2)cn1 [Example 705, 2-amino-5-(1-methyl-1H-pyrazol-4-yl)-N—((R)-1-((1S,2S)-2-phenylcyclopropane-1-carbonyl)pyrrolidin-3-yl)nicotinamide] cannot be ordered by IC50: greater than 1000 nM for the first, greater than 1000 nM for the second.

Compared with Cn1cc(-c2cnc(N)c(C(=O)N[C@@H]3CCN(C(=O)c4ccc(F)cc4Cl)C3)c2)cn1 [Example 716, (R)-2-amino-N-(1-(2-chloro-4-fluorobenzoyl)pyrrolidin-3-yl)-5-(1-methyl-1H-pyrazol-4-yl)nicotinamide], Cn1cc(-c2cnc(N)c(C(=O)N[C@@H]3CCN(C(=O)c4ccc(-c5ccc(C#N)cc5)cc4)C3)c2)cn1 [Example 726, (R)-2-amino-N-(1-(4′-cyano-[1,1′-biphenyl]-4-carbonyl)pyrrolidin-3-yl)-5-(1-methyl-1H-pyrazol-4-yl)nicotinamide] is lower in IC50: greater than 1000 nM for the first, 100 to 1000 nM for the second. The second is the more potent here.

Compared with Cn1cc(-c2cnc(N)c(C(=O)N[C@@H]3CCN(C(=O)c4ccc(-c5cccc(CN)c5)cc4)C3)c2)cn1 [Example 727, (R)-2-amino-N-(1-(3′-(aminomethyl)-[1,1′-biphenyl]-4-carbonyl)pyrrolidin-3-yl)-5-(1-methyl-1H-pyrazol-4-yl)nicotinamide], Cn1cc(-c2cnc(N)c(C(=O)N[C@@H]3CCN(C(=O)c4ccc(-c5ccccc5)cc4N)C3)c2)cn1 [Example 728, (R)-2-amino-N-(1-(3-amino-[1,1′-biphenyl]-4-carbonyl)pyrrolidin-3-yl)-5-(1-methyl-1H-pyrazol-4-yl)nicotinamide] is higher in IC50: 10 to 100 nM for the first, 100 to 1000 nM for the second.

Cn1cc(-c2cnc(N)c(C(=O)N[C@@H]3CCN(C(=O)/C=C/c4ccc(-c5ccccc5)cc4)C3)c2)cn1 [Example 730, (R,E)-N-(1-(3-([1,1′-biphenyl]-4-yl)acryloyl)pyrrolidin-3-yl)-2-amino-5-(1-methyl-1H-pyrazol-4-yl)nicotinamide] and Cn1cc(-c2cnc(N)c(C(=O)N[C@@H]3CCN(C(=O)c4ccc(Oc5ccccc5)cc4)C3)c2)cn1 [Example 731, (R)-2-amino-5-(1-methyl-1H-pyrazol-4-yl)-N-(1-(4-phenoxybenzoyl)pyrrolidin-3-yl)nicotinamide] fall in the same range of IC50: 100 to 1000 nM for the first, 100 to 1000 nM for the second.

Cn1cc(-c2cnc(N)c(C(=O)N[C@@H]3CCN(C(=O)c4cccc(Br)c4)C3)c2)cn1 [Example 733, (R)-2-amino-N-(1-(3-bromobenzoyl)pyrrolidin-3-yl)-5-(1-methyl-1H-pyrazol-4-yl)nicotinamide] and Cn1cc(-c2cnc(N)c(C(=O)NC[C@H]3CCCN3C(=O)c3ccc(-c4ccccc4)cc3)c2)cn1 [Example 736, (R)—N-((1-([1,1′-biphenyl]-4-carbonyl)pyrrolidin-2-yl)methyl)-2-amino-5-(1-methyl-1H-pyrazol-4-yl)nicotinamide] cannot be ordered by IC50: greater than 1000 nM for the first, greater than 1000 nM for the second.

Cn1cc(-c2cnc(N)c(C(=O)NC[C@@H]3CCN(C(=O)c4ccc(-c5ccccc5)cc4)C3)c2)cn1 [Example 738, (S)—N-((1-([1,1′-biphenyl]-4-carbonyl)pyrrolidin-3-yl)methyl)-2-amino-5-(1-methyl-1H-pyrazol-4-yl)nicotinamide] and Cn1cc(-c2cnc(N)c(C(=O)NC[C@@H]3CCN(C(=O)c4cccc(-c5ccccc5)c4)C3)c2)cn1 [Example 739] cannot be ordered by IC50: greater than 1000 nM for the first, greater than 1000 nM for the second.

Cn1cc(-c2cnc(N)c(C(=O)N[C@@H]3CCN(C(=O)c4ccc(-c5ccccc5)cc4)C3)n2)cn1 [Example 744, (R)—N-(1-([1,1′-biphenyl]-4-carbonyl)pyrrolidin-3-yl)-3-amino-6-(1-methyl-1H-pyrazol-4-yl)pyrazine-2-carboxamide] and Nc1ncc(-c2ccccc2)cc1C(=O)N[C@@H]1CCN(C(=O)c2ccc(-c3ccc(F)cc3Cl)cc2)C1 [Example 775, (R)-2-amino-N-(1-(2′-chloro-4′-fluoro-[1,1′-biphenyl]-4-carbonyl)pyrrolidin-3-yl)-5-phenylnicotinamide] fall in the same range of IC50: 100 to 1000 nM for the first, 100 to 1000 nM for the second.

CC(C)(c1ccc(-c2cnc(N)c(C(=O)N[C@@H]3CCN(C(=O)c4ccc(-c5ccccc5)cc4)C3)c2)cc1)N1CCN(S(=O)(=O)c2ccccc2[N+](=O)[O-])CC1 [Example 783, (R)—N-(1-([1,1′-biphenyl]-4-carbonyl)pyrrolidin-3-yl)-2-amino-5-(4-(2-(4-((2-nitrophenyl)sulfonyl)piperazin-1-yl)propan-2-yl)phenyl)nicotinamide] and Cn1cc(-c2cnc(N)c(C(=O)N[C@@H]3CCN(C(=O)c4ccc(-c5ccc(Oc6ccc(N)nc6)cc5)cc4)C3)c2)cn1 [Example 813, (R)-2-amino-N-(1-(4′-((6-aminopyridin-3-yl)oxy)-[1,1′-biphenyl]-4-carbonyl)pyrrolidin-3-yl)-5-(1-methyl-1H-pyrazol-4-yl)nicotinamide] fall in the same range of IC50: 100 to 1000 nM for the first, 100 to 1000 nM for the second.

Cn1cc(-c2cnc(N)c(C(=O)N[C@@H]3CCN(C(=O)c4ccc(-c5ccc(Oc6nn[nH]n6)cc5)cc4)C3)c2)cn1 [Example 814, (R)—N-(1-(4′-((2H-tetrazol-5-yl)oxy)-[1,1′-biphenyl]-4-carbonyl)pyrrolidin-3-yl)-2-amino-5-(1-methyl-1H-pyrazol-4-yl)nicotinamide] and Cn1cc(-c2cnc(N)c(C(=O)N[C@@H]3CCN(C(=O)c4ccc(/C=C/c5ccncc5)cc4)C3)c2)cn1 [Example 824, (R,E)-2-amino-5-(1-methyl-1H-pyrazol-4-yl)—N-(1-(4-(2-(pyridin-4-yl)vinyl)benzoyl)pyrrolidin-3-yl)nicotinamide] fall in the same range of IC50: 100 to 1000 nM for the first, 100 to 1000 nM for the second.

First: Cn1cc(-c2cnc(N)c(C(=O)N[C@@H]3CCN(C(=O)c4ccc(/C=C/c5ccccn5)cc4)C3)c2)cn1 [Example 825, (R,E)-2-amino-5-(1-methyl-1H-pyrazol-4-yl)—N-(1-(4-(2-(pyridin-2-yl)vinyl)benzoyl)pyrrolidin-3-yl)nicotinamide]
Second: C/C(=C\c1ccc(C(=O)N2CC[C@@H](NC(=O)c3cc(-c4cnn(C)c4)cnc3N)C2)cc1)c1ccccc1 [Example 826, (R,E)-2-amino-5-(1-methyl-1H-pyrazol-4-yl)-N-(1-(4-(2-phenylprop-1-en-1-yl)benzoyl)pyrrolidin-3-yl)nicotinamide]
The IC50 of the first is lower: 100 to 1000 nM for the first, greater than 1000 nM for the second.

Cn1cc(-c2cnc(N)c(C(=O)N[C@@H]3CCN(C(=O)c4ccc(/C=C/C5CCNCC5)cc4)C3)c2)cn1 [Example 827, (R,E)-2-amino-5-(1-methyl-1H-pyrazol-4-yl)-N-(1-(4-(2-(piperidin-4-yl)vinyl)benzoyl)pyrrolidin-3-yl)nicotinamide] and COC(=O)/C=C/c1ccc(C(=O)N2CC[C@@H](NC(=O)c3cc(-c4cnn(C)c4)cnc3N)C2)cc1 [Example 828, methyl (R,E)-3-(4-(3-(2-amino-5-(1-methyl-1H-pyrazol-4-yl)nicotinamido)pyrrolidine-1-carbonyl)phenyl)acrylate] cannot be ordered by IC50: greater than 1000 nM for the first, greater than 1000 nM for the second.

Cn1cc(-c2cnc(N)c(C(=O)N[C@@H]3C[C@H](C(=O)O)N(C(=O)c4ccc(-c5ccc(F)cc5Cl)cc4)C3)c2)cn1 [Example 839, (2R,4R)-4-(2-amino-5-(1-methyl-1H-pyrazol-4-yl)nicotinamido)-1-(2′-chloro-4′-fluoro-[1,1′-biphenyl]-4-carbonyl)pyrrolidine-2-carboxylic acid] and “(R)-2-amino-N-(1-(3,5-dihydroxy-2-naphthoyl)pyrrolidin-3-yl)-5-(1-methyl-1H-pyrazol-4-yl)nicotinamide [Example 668]” cannot be ordered by IC50: greater than 1000 nM for the first, greater than 1000 nM for the second.
